According to ChEMBL document CHEMBL1143545, “A proof of the specificity of kanamycin-ribosomal RNA interaction with designed synthetic analogs and the antibacterial activity” (2005):
≈ marks a conversion by molar mass, not a printed value.

Experiments:
Format in all cases: functional
Pseudomonas aeruginosa [1] = experiment: Minimal inhibitory concentration against Pseudomonas aeruginosa A3 was determined by 2-fold agar dilution streak method at 37: C for 18 h
Staphylococcus aureus = experiment: Minimal inhibitory concentration against Staphylococcus aureus FDA209P was determined by 2-fold agar dilution streak method at 37: C for 18 h
Bacillus cereus = experiment: Minimal inhibitory concentration against Bacillus cereus ATCC 10702 was determined by 2-fold agar dilution streak method at 37: C for 18 h; details: ATCC 10702, 18 h
Pseudomonas aeruginosa [2] = experiment: Minimal inhibitory concentration against Pseudomonas aeruginosa 21-75 was determined by 2-fold agar dilution streak method at 37: C for 18 h
Escherichia coli [3] = experiment: Minimal inhibitory concentration against Escherichia coli JR66/W677 was determined by 2-fold agar dilution streak method at 37: C for 18 h
[4] = system: Mycolicibacterium smegmatis; experiment: Minimal inhibitory concentration against Mycobacterium smegmatis ATCC607 was determined by 2-fold agar dilution streak method at 37C for 42h
Bacillus subtilis = experiment: Minimal inhibitory concentration against Bacillus subtilis PCI219 was determined by 2-fold agar dilution streak method at 37: C for 18 h
Pseudomonas aeruginosa [5] = experiment: Minimal inhibitory concentration against Pseudomonas aeruginosa GN315 was determined by 2-fold agar dilution streak method at 37: C for 18 h
Escherichia coli [6] = experiment: Minimal inhibitory concentration against Escherichia coli K-12 ML1410 was determined by 2-fold agar dilution streak method at 37: C for 18 h
Micrococcus luteus = experiment: Minimal inhibitory concentration against Micrococcus luteus FDA16 was determined by 2-fold agar dilution streak method at 37: C for 18 h
Escherichia coli [7] = experiment: Minimal inhibitory concentration against Escherichia coli K-12 was determined by 2-fold agar dilution streak method at 37: C for 18 h; details: K-12, 18 h
Klebsiella pneumoniae = experiment: Minimal inhibitory concentration against Klebsiella pneumoniae PCI 602 was determined by 2-fold agar dilution streak method at 37: C for 18 h
Serratia marcescens = experiment: Minimal inhibitory concentration against Serratia marcescens was determined by 2-fold agar dilution streak method at 37: C for 18 h

| MIC (Pseudomonas aeruginosa [1]) [µg/mL] | MIC (Staphylococcus aureus) [µg/mL] | MIC (Bacillus cereus) [µg/mL] | MIC (Pseudomonas aeruginosa [2]) [µg/mL] | MIC (Escherichia coli [3]) [µg/mL] | MIC [4] [µg/mL] | MIC (Bacillus subtilis) [µg/mL] | MIC (Pseudomonas aeruginosa [5]) [µg/mL] | MIC (Escherichia coli [6]) [µg/mL] | MIC (Micrococcus luteus) [µg/mL] | MIC (Escherichia coli [7]) [µg/mL] | MIC (Klebsiella pneumoniae) [µg/mL] | MIC (Serratia marcescens) [µg/mL] | Compound |
| --- | --- | --- | --- | --- | --- | --- | --- | --- | --- | --- | --- | --- | --- |
| 25 (≈ 50.7 µM) | 0.78 (≈ 1.58 µM) | 25 (≈ 50.7 µM) | > 100 | > 100 | 3.13 (≈ 6.34 µM) | 0.78 (≈ 1.58 µM) | > 100 | > 100 | > 100 | 50 (≈ 101 µM) | > 100 | > 100 | NCC1CCC(N)C(OC2C(N)CC(N=C(N)N)C(OC3OC(CO)C(O)C(N)C3O)C2O)O1 (stereo not given) |
| 3.13 (≈ 5.83 µM) | 1.56 (≈ 2.91 µM) | 6.25 (≈ 11.6 µM) | > 100 | 25 (≈ 46.6 µM) | 6.25 (≈ 11.6 µM) | 0.78 (≈ 1.45 µM) | > 100 | 25 (≈ 46.6 µM) | 100 (≈ 186 µM) | 12.5 (≈ 23.3 µM) | 12.5 (≈ 23.3 µM) | > 100 | NCCCC(=O)NC1CC(N)C(OC2OC(CN)CCC2N)C(O)C1OC1OC(CO)C(O)C(N)C1O (stereo not given) |
| 6.25 (≈ 10.8 µM) | 1.56 (≈ 2.7 µM) | 6.25 (≈ 10.8 µM) | > 100 | 50 (≈ 86.4 µM) | 6.25 (≈ 10.8 µM) | 1.56 (≈ 2.7 µM) | > 100 | 25 (≈ 43.2 µM) | 100 (≈ 173 µM) | 12.5 (≈ 21.6 µM) | 12.5 (≈ 21.6 µM) | > 100 | NCC1CCC(N)C(OC2C(N)CC(NC(=O)CCCN=C(N)N)C(OC3OC(CO)C(O)C(N)C3O)C2O)O1 (stereo not given) |
| 100 (≈ 165 µM) | 6.25 (≈ 10.3 µM) | 25 (≈ 41.1 µM) | > 100 | > 100 | 25 (≈ 41.1 µM) | 3.13 (≈ 5.15 µM) | > 100 | > 100 | > 100 | 100 (≈ 165 µM) | 100 (≈ 165 µM) | > 100 | NCC1CCC(N)C(OC2C(N)CC(NC(=O)[C@H](N)CCCN=C(N)N)C(OC3OC(CO)C(O)C(N)C3O)C2O)O1 (stereo not given in full) |
| 0.39 (≈ 0.656 µM) | 0.2 (≈ 0.336 µM) | 0.78 (≈ 1.31 µM) | 12.5 (≈ 21 µM) | 3.13 (≈ 5.26 µM) | 0.39 (≈ 0.656 µM) | 0.1 (≈ 0.168 µM) | > 100 | 1.56 (≈ 2.62 µM) | 12.5 (≈ 21 µM) | 0.78 (≈ 1.31 µM) | 1.56 (≈ 2.62 µM) | 25 (≈ 42 µM) | NCC1CCC(N)C(OC2C(N)CC(NC(=O)[C@H](O)CCN=C(N)N)C(OC3OC(CO)C(O)C(N)C3O)C2O)O1 (stereo not given in full) |
